We go through ten molecules from patent publication US20240252488A1 (KOREA RESEARCH INSTITUTE OF CHEMICAL TECHNOLOGY, priority 2020, published 2024).

As usually defined, the pKd is the Kd on a negative log10 scale, so that one unit is a factor of ten.

Molecules are shown by their SMILES. pKd: −log10 of the molar value.

The test system of one assay is FADD−/− Jurkat cells. The assay is described as follows: Necroptosis inhibition assay, TNF-α-induced necroptosis (CellTiter-Glo 2.0). Type of assay: cell-based, human. The conditions noted are these: TNF-α 15 ng/mL; for Necroptosis inhibition assay (Rescue %) 1 μM: compound 1 μM; for Necroptosis inhibition assay (Rescue %) 10 μM: compound 10 μM. Summed up:
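FADD−/− Jurkat cells preincubated 30 min at room temperature with compound at 0.1, 1 and 10 μM final, then stimulated with TNF-α (15 ng/mL final) for 20–24 h at 37 °C, 5% CO2. Viability read as ATP luminescence; cytotoxicity and necroptosis inhibition rate calculated from luminescence values.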
(In ATP-based viability assays light output follows the ATP content of the culture.)

The target in assay [1] is T1, MLKL (Homo sapiens, UniProt Q8NB16).
T1 sequence (Q8NB16 1-471): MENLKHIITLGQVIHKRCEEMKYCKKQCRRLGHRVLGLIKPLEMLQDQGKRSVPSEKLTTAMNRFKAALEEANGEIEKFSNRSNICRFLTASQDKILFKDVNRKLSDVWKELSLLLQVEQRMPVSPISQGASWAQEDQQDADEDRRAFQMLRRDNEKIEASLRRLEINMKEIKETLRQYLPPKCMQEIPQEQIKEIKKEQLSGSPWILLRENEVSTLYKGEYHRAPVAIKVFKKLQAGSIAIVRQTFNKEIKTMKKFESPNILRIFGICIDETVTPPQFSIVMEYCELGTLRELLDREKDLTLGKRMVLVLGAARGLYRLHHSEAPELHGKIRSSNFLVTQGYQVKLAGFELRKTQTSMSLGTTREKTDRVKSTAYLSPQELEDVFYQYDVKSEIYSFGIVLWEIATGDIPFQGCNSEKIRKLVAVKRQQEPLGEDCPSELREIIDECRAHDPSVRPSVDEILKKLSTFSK
Put plainly: MLKL degradation assay in HepG2 cell line (western blot). The assay is classed as cell-based. Also on record: endogenous in cells; host or cells: HepG2 or HaCaT. The conditions noted are these: cell line not given; for Degradation assay (Degradation %) 1 μM: compound 1 μM; for Degradation assay (Degradation %) 10 μM: compound 10 μM. Summed up: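 HepG2 cells were treated 20-24 h at 37 °C with compound at 1 or 10 μM final. RIPA lysates were normalized by BCA, and 10-15 μg protein per lane was resolved by SDS-PAGE. MLKL was detected by western blot with chemiluminescence.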

The target of assay [2] is T1, MLKL. The assay is described as follows: Measurement of binding affinity with MLKL receptor (competitive binding assay, Kd). Also on record: made in house; host or cells: HEK 293 cell line (T7 phage in E. coli BL21-derived host is also described). Summed up:
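qPCR of MLKL eluted from liganded beads served as the read-out, from which Kd was derived. The protein was made in HEK 293 cells with a DNA tag, and test compounds competed with the bead-bound ligand at 0.9% final DMSO.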

As for `Nc1ncc(-c2cnn(C3CCN(CCC4CCN(C(=O)C5CN(c6ccc7nnn(C8CCC(=O)NC8=O)c(=O)c7c6)C5)CC4)CC3)c2)nc1C(=O)OC(C(=O)Nc1ccc(F)cc1)c1ccccc1` (stereo not shown) [TDH-291, 2-((4-fluorophenyl)amino)-2-oxo-1-phenylethyl 3-amino-6-(1-(1-(2-(1-(1-(3-(2,6-dioxopiperidin-3-yl)-4-oxo-3,4-dihydrobenzo[d][1,2,3]triazin-6-yl)azetidine-3-carbonyl)piperidin-4-yl)ethyl)piperidin-4-yl)-1H-pyrazol-4-yl)pyrazine-2-carboxylate], in the assay on FADD−/− Jurkat cells, the “Necroptosis inhibition assay (Rescue %) 1 μM” value came to 87.96% and the “Necroptosis inhibition assay (Rescue %) 10 μM” value is on record as 64.92%. Also, on MLKL [1], the “Degradation assay (Degradation %) 1 μM” value is 70.94% and the “Degradation assay (Degradation %) 10 μM” value came to 48.11%. This molecule also showed a negative-log Kd (pKd) on MLKL [2] of 8.17.
On the same counts, the results for `Nc1ncc(-c2cnn(C3CCN(CCOCCOCCOCCNc4ccc5c(c4)C(=O)N(C4CCC(=O)NC4=O)C5=O)CC3)c2)nc1C(=O)O[C@@H](C(=O)Nc1ccc(F)cc1)c1ccccc1` (stereo partly drawn) [TDH-154, (R)-2-((4-fluorophenyl)amino)-2-oxo-1-phenylethyl 3-amino-6-(1-(1-(2-(2-(2-(2-((2-(2,6-dioxopiperidin-3-yl)-1,3-dioxoisoindolin-5-yl)amino)ethoxy)ethoxy)ethoxy)ethyl)piperidin-4-yl)-1H-pyrazol-4-yl)pyrazine-2-carboxylate] are 37.01%, 23.23%, 25.56%, 28.19% and 8.42.
Consider `COc1ccc(C(=O)N2CCC(C(=O)N3CCC4(CC3)CC(N3CCC(CN5CCC(n6cc(-c7cnc(N)c(C(=O)O[C@@H](C(=O)Nc8ccc(F)cc8)c8ccccc8)n7)cn6)CC5)CC3)C4)CC2)cc1N1CCC(=O)NC1=O` [TDH-508, (R)-2-((4-fluorophenyl)amino)-2-oxo-1-phenylethyl 3-amino-6-(1-(1-((1-(7-(1-(3-(2,4-dioxotetrahydropyrimidin-1(2H)-yl)-4-methoxybenzoyl)piperidine-4-carbonyl)-7-azaspiro[3.5]nonan-2-yl)piperidin-4-yl)methyl)piperidin-4-yl)-1H-pyrazol-4-yl)pyrazine-2-carboxylate], for which, in the assay with FADD−/− Jurkat cells (FADD−/− Jurkat cells), the “Necroptosis inhibition assay (Rescue %) 1 μM” value is 48.15% and the “Necroptosis inhibition assay (Rescue %) 10 μM” value is listed as 39.79%. Further, on MLKL [1], the “Degradation assay (Degradation %) 1 μM” value is 87.16% and the “Degradation assay (Degradation %) 10 μM” value is 90.95%. The pKd on MLKL [2] was 9.40.
In the case of `Nc1ncc(-c2cnn(C3CCN(CCCN4CCN(C(=O)CNc5ccc6c(c5)C(=O)N(C5CCC(=O)NC5=O)C6=O)CC4)CC3)c2)nc1C(=O)O[C@@H](C(=O)Nc1ccc(F)cc1)c1ccccc1` (stereo partly drawn) [TDH-357, (R)-2-((4-fluorophenyl)amino)-2-oxo-1-phenylethyl 3-amino-6-(1-(1-(3-(4-((2-(2,6-dioxopiperidin-3-yl)-1,3-dioxoisoindolin-5-yl)glycyl)piperazin-1-yl)propyl)piperidin-4-yl)-1H-pyrazol-4-yl)pyrazine-2-carboxylate], the “Necroptosis inhibition assay (Rescue %) 1.1 μM” value in the assay on FADD−/− Jurkat cells (compound 1.1 µM) is listed as 82.13 (1.1µM) %. For the same molecule, on MLKL [1], the “Degradation assay (Degradation %) 1 μM” value amounted to 84.79% and the “Degradation assay (Degradation %) 10 μM” value is 76.36%. At MLKL [2], this molecule gave a pKd of 9.26.
As for `Nc1ncc(-c2cnn(C3CCN(C(=O)COCCOCCNc4ccc5c(c4)C(=O)N(C4CCC(=O)NC4=O)C5=O)CC3)c2)nc1C(=O)O[C@@H](C(=O)Nc1ccc(F)cc1)c1ccccc1` (stereo partly drawn) [TDH-105, (R)-2-((4-fluorophenyl)amino)-2-oxo-1-phenylethyl 3-amino-6-(1-(1-(2-(2-(2-((2-(2,6-dioxopiperidin-3-yl)-1,3-dioxoisoindolin-5-yl)amino)ethoxy)ethoxy)acetyl)piperidin-4-yl)-1H-pyrazol-4-yl)pyrazine-2-carboxylate], in the assay on FADD−/− Jurkat cells, the “Necroptosis inhibition assay (Rescue %) 1 μM” value was determined as 27.07% and the “Necroptosis inhibition assay (Rescue %) 10 μM” value worked out at 15.46%. In addition, on MLKL [1], the “Degradation assay (Degradation %) 1 μM” value came out at 43.02% and the “Degradation assay (Degradation %) 10 μM” value was 40.8%. Also, the pKd on MLKL [2] is 8.21.
In the case of `Nc1ncc(-c2cnn(C3CCN(CCC4CCN(C(=O)C5CCN(C6=CC(=O)N(C7CCC(=O)NC7=O)C6=O)CC5)CC4)CC3)c2)nc1C(=O)O[C@@H](C(=O)Nc1ccc(F)cc1)c1ccccc1` (stereo partly drawn) [TDH-524, (R)-2-((4-fluorophenyl)amino)-2-oxo-1-phenylethyl 3-amino-6-(1-(1-(2-(1-(1-(1-(2,6-dioxopiperidin-3-yl)-2,5-dioxo-2,5-dihydro-1H-pyrrol-3-yl)piperidine-4-carbonyl)piperidin-4-yl)ethyl)piperidin-4-yl)-1H-pyrazol-4-yl)pyrazine-2-carboxylate], in the assay on FADD−/− Jurkat cells (FADD−/− Jurkat cells), the “Necroptosis inhibition assay (Rescue %) 1 μM” value turned out to be 48.61% and the “Necroptosis inhibition assay (Rescue %) 10 μM” value is 15.69%. At MLKL [1], the “Degradation assay (Degradation %) 1 μM” value worked out at 89.35% and the “Degradation assay (Degradation %) 10 μM” value is listed as 83.06%. The molecule also showed a pKd on MLKL [2] of 9.00.
Regarding `Nc1ncc(-c2cnn(C3CCN(CC4CCN(C(=O)CCc5cccc6c5CN(C5CCC(=O)NC5=O)C6=O)CC4)CC3)c2)nc1C(=O)O[C@@H](C(=O)Nc1ccc(F)cc1)c1ccccc1` (stereo partly drawn) [TDH-384, (R)-2-((4-fluorophenyl)amino)-2-oxo-1-phenylethyl 3-amino-6-(1-(1-((1-(3-(2-(2,6-dioxopiperidin-3-yl)-1-oxoisoindolin-4-yl)propanoyl)piperidin-4-yl)methyl)piperidin-4-yl)-1H-pyrazol-4-yl)pyrazine-2-carboxylate], in the assay on FADD−/− Jurkat cells, the “Necroptosis inhibition assay (Rescue %) 1 μM” value turned out to be 39.08% and the “Necroptosis inhibition assay (Rescue %) 10 μM” value is reported as 9.67%. Besides, at MLKL [1], the “Degradation assay (Degradation %) 1 μM” value stood at 81.59% and the “Degradation assay (Degradation %) 10 μM” value is on record as 58.63%. On MLKL [2], this molecule had a pKd of 8.72.
For `COc1cccc(NC(=O)[C@H](OC(=O)c2nc(-c3cnn(C4CCN(CCCN5CCN(C(=O)COc6ccc7c(c6)C(=O)N(C6CCC(=O)NC6=O)C7=O)CC5)CC4)c3)cnc2N)c2ccccc2)c1` (stereo partly drawn) [TDH-486, (R)-2-((3-methoxyphenyl)amino)-2-oxo-1-phenylethyl 3-amino-6-(1-(1-(3-(4-(2-((2-(2,6-dioxopiperidin-3-yl)-1,3-dioxoisoindolin-5-yl)oxy)acetyl)piperazin-1-yl)propyl)piperidin-4-yl)-1H-pyrazol-4-yl)pyrazine-2-carboxylate], in the assay on FADD−/− Jurkat cells (FADD−/− Jurkat cells), the “Necroptosis inhibition assay (Rescue %) 1 μM” value is on record as 77.72% and the “Necroptosis inhibition assay (Rescue %) 10 μM” value came to 34.5%. At MLKL [1], the “Degradation assay (Degradation %) 1 μM” value is reported as 85.37% and the “Degradation assay (Degradation %) 10 μM” value was 88.15%. The molecule also gave a negative logarithm of the Kd (pKd) on MLKL [2] of 8.60.
Take `Nc1ncc(-c2cnn(C3CCN(CCCCCCCCCCNC(=O)C4CCN(c5ccc6c(c5)C(=O)N(C5CCC(=O)NC5=O)C6=O)CC4)CC3)c2)nc1C(=O)O[C@@H](C(=O)Nc1ccc(F)cc1)c1ccccc1` (stereo partly drawn) [TDH-157, (R)-2-((4-fluorophenyl)amino)-2-oxo-1-phenylethyl 3-amino-6-(1-(1-(10-(1-(2-(2,6-dioxopiperidin-3-yl)-1,3-dioxoisoindolin-5-yl)piperidine-4-carboxamido)decyl)piperidin-4-yl)-1H-pyrazol-4-yl)pyrazine-2-carboxylate]: in the assay on FADD−/− Jurkat cells, the “Necroptosis inhibition assay (Rescue %) 1 μM” value is 37.7% and the “Necroptosis inhibition assay (Rescue %) 10 μM” value came to 45.37%. On MLKL [1], the “Degradation assay (Degradation %) 1 μM” value turned out to be 62.45% and the “Degradation assay (Degradation %) 10 μM” value amounted to 64.73%. The negative-log Kd (pKd) on MLKL [2] is 7.33.
As for `Nc1ncc(-c2cnn(C3CCN(CCCN4CCN(C(=O)CCc5cccc6c5CN(C5CCC(=O)NC5=O)C6=O)CC4)CC3)c2)nc1C(=O)O[C@@H](C(=O)Nc1ccc(F)cc1)c1ccccc1` (stereo partly drawn) [TDH-386, (R)-2-((4-fluorophenyl)amino)-2-oxo-1-phenylethyl 3-amino-6-(1-(1-(3-(4-(3-(2-(2,6-dioxopiperidin-3-yl)-1-oxoisoindolin-4-yl)propanoyl)piperazin-1-yl)propyl)piperidin-4-yl)-1H-pyrazol-4-yl)pyrazine-2-carboxylate], in the assay with FADD−/− Jurkat cells, the “Necroptosis inhibition assay (Rescue %) 1 μM” value came to 34.89% and the “Necroptosis inhibition assay (Rescue %) 10 μM” value was determined as 20.76%. Further, at MLKL [1], the “Degradation assay (Degradation %) 1 μM” value came out at 79.68% and the “Degradation assay (Degradation %) 10 μM” value is recorded as 71.14%. The same molecule gave a pKd on MLKL [2] of 9.03.
